Measured values published in US20200055839A1 (priority 2017, published 2020).

These compounds were tested on NL-RLuc virus (assay: Inhibition of HIV replication (NL-RLuc virus, luciferase readout in MT-2 cells)). Conditions: Human immunodeficiency virus 1, MT2, 120 h, MT-2 cells infected with NL-RLuc virus, 5 days of incubation, 10% FBS, at least 2 experiments.
Format: cell-based
Procedure, shortened: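 MT-2 cells infected with NL4-3-derived virus carrying Renilla luciferase in place of part of nef, grown 5 days with serial compound dilutions in RPMI 1640/10% FBS. Virus growth read as luciferase expression. EC50 from median effect equation, at least 2 experiments.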

Point of comparison: `COc1ccc(-c2cnc(C)c([C@H](OC(C)(C)C)C(=O)O)c2N2CCC(C)(C)CC2)nn1` [Example 15, (S)-2-(tert-Butoxy)-2-(4-(4,4-dimethylpiperidin-1-yl)-5-(6-methoxypyridazin-3-yl)-2-methylpyridin-3-yl)acetic acid], EC50 16 nM. Against it:
- COc1cccc(-c2cnc(C)c([C@H](OC(C)(C)C)C(=O)O)c2N2CCC(C)(C)CC2)c1 [Example 168, (2S)-2-(tert-Butoxy)-2-[4-(4,4-dimethylpiperidin-1-yl)-5-(3-methoxyphenyl)-2-methylpyridin-3-yl]acetic acid] — 4-fold lower, 4 nM
- Cc1ccc(F)cc1CCOc1ccc(-c2cnc(C)c([C@H](OC(C)(C)C)C(=O)O)c2N2CCC(C)(C)CC2)nc1 [Example 295, (2S)-2-(tert-butoxy)-2-[4′-(4,4-dimethylpiperidin-1-yl)-5-[2-(5-fluoro-2-methylphenyl)ethoxy]-6′-methyl-[2,3′-bipyridine]-5′-yl]acetic acid] — 8-fold lower, 2 nM
- Cc1ncc(-c2ccc(OCCc3ccc(F)cc3)c(F)c2F)c(N2CCC(C)(C)CC2)c1[C@H](OC(C)(C)C)C(=O)O [Example 124, (S)-2-(tert-Butoxy)-2-(5-(2,3-difluoro-4-(4-fluorophenethoxy)phenyl)-4-(4,4-dimethylpiperidin-1-yl)-2-methylpyridin-3-yl)acetic acid] — 8-fold lower, 2 nM
- Cc1ncc(-c2cnc(OCCc3ccccc3Cl)c(F)c2)c(N2CCC(C)(C)CC2)c1[C@H](OC(C)(C)C)C(=O)O [Example 238, (S)-2-(tert-Butoxy)-2-(6′-(2-chlorophenethoxy)-4-(4,4-dimethylpiperidin-1-yl)-5′-fluoro-6-methyl-[3, 3′-bipyridin]-5-yl)acetic acid] — 8-fold lower, 2 nM
- Cc1nc(-c2cn(C)cn2)c(-c2ccc(OCCc3ccc(F)cc3)cc2)c(N2CCC(C)(C)CC2)c1[C@H](OC(C)(C)C)C(=O)O [Example 57, (S)-2-(tert-Butoxy)-2-(4-(4,4-dimethylpiperidin-1-yl)-5-(4-(4-fluorophenethoxy)phenyl)-2-methyl-6-(1-methyl-1H-imidazol-4-yl)pyridin-3-yl)acetic acid] — within 1.5-fold, 13 nM
- Cc1nc(Nc2ccncc2)c(-c2ccc(OCCc3ccc(F)cc3)c(F)c2)c(N2CCC(C)(C)CC2)c1[C@H](OC(C)(C)C)C(=O)O [Example 104, (S)-2-(tert-Butoxy)-2-(4-(4,4-dimethylpiperidin-1-yl)-5-(3-fluoro-4-(4-fluorophenethoxy)phenyl)-2-methyl-6-(pyridin-4-ylamino)pyridin-3-yl)acetic acid] — 23-fold lower, 0.7 nM
- Cc1ccc(CCOc2ccc(-c3cnc(C)c([C@H](OC(C)(C)C)C(=O)O)c3N3CCC(C)(C)CC3)nc2)cc1Cl [Example 331, (2S)-2-(tert-butoxy)-2-{5-[2-(3-chloro-4-methylphenyl)ethoxy]-4′-(4,4-dimethylpiperidin-1-yl)-6′-methyl-[2,3′-bipyridine]-5′-yl}acetic acid] — 32-fold lower, 0.5 nM
- Cc1ncc(-c2ccc(OCCc3cccc(Cl)c3)cc2)c(N2CCC(C)(C)CC2)c1[C@H](OC(C)(C)C)C(=O)O [Example 364, (2S)-2-(tert-butoxy)-2-(5-{4-[2-(3-chlorophenyl)ethoxy]phenyl}-4-(4,4-dimethylpiperidin-1-yl)-2-methylpyridin-3-yl)acetic acid] — 8-fold lower, 2 nM
- Cc1ncc(-c2ccccc2-c2ccccc2)c(N2CCC(C)(C)CC2)c1[C@H](OC(C)(C)C)C(=O)O [Example 138, (2S)-2-(5-{[1,1′-Biphenyl]-2-yl}-4-(4,4-dimethylpiperidin-1-yl)-2-methylpyridin-3-yl)-2-(tert-butoxy)acetic acid] — 4.4-fold higher, 71 nM
- CCOc1ccc(-c2cnc(C)c([C@H](OC(C)(C)C)C(=O)O)c2N2CCC(C)(C)CC2)cn1 [Example 112, (S)-2-(tert-Butoxy)-2-(4-(4,4-dimethylpiperidin-1-yl)-6′-ethoxy-6-methyl-[3, 3′-bipyridin]-5-yl)acetic acid] — 3.2-fold lower, 5 nM
- CC1(C)CCN(c2c(-c3ccc(F)c(F)c3)cnc(Cl)c2[C@H](OC(C)(C)C)C(=O)O)CC1 [Example 208, (S)-2-(tert-Butoxy)-2-(2-chloro-5-(3,4-difluorophenyl)-4-(4,4-dimethylpiperidin-1-yl)pyridin-3-yl)acetic acid] — 2.2-fold higher, 35 nM
- Cc1ncc(-c2cnc(O[C@@H](C)Cc3ccccc3)c(F)c2)c(N2CCC(C)(C)CC2)c1[C@H](OC(C)(C)C)C(=O)O [Example 379, (2S)-2-(tert-butoxy)-2-[4-(4,4-dimethylpiperidin-1-yl)-5′-fluoro-6-methyl-6′-{[(2S)-1-phenylpropan-2-yl]oxy}-[3,3′-bipyridine]-5-yl]acetic acid] — 8-fold lower, 2 nM
- Cc1ncc(-c2ccc(O[C@@H](C)C(C)C)cn2)c(N2CCC(C)(C)CC2)c1[C@H](OC(C)(C)C)C(=O)O [Example 311, (2S)-2-(tert-butoxy)-2-[4′-(4,4-dimethylpiperidin-1-yl)-6′-methyl-5-{[(2S)-3-methylbutan-2-yl]oxy}-[2,3′-bipyridine]-5′-yl]acetic acid] — 16-fold lower, 1 nM
- Cc1ncc(-c2ccc(OCCc3cc(F)cc(F)c3)cn2)c(N2CCC(C)(C)CC2)c1[C@H](OC(C)(C)C)C(=O)O [Example 323, (2S)-2-(tert-butoxy)-2-{5-[2-(3,5-difluorophenyl)ethoxy]-4′-(4,4-dimethylpiperidin-1-yl)-6′-methyl-[2,3′-bipyridine]-5′-yl}acetic acid] — 16-fold lower, 1 nM
- CCCOc1ccc(-c2cnc(C)c([C@H](OC(C)(C)C)C(=O)O)c2N2CCC(C)(C)CC2)nc1 [Example 318, (2S)-2-(tert-butoxy)-2-[4′-(4,4-dimethylpiperidin-1-yl)-6′-methyl-5-propoxy-[2,3′-bipyridine]-5′-yl]acetic acid] — 5.3-fold lower, 3 nM
- Cc1ncc(-c2ccc3c(c2)OCO3)c(N2CCC(C)(C)CC2)c1[C@H](OC(C)(C)C)C(=O)O [Example 180, (2S)-2-[5-(2H-1,3-Benzodioxol-5-yl)-4-(4,4-dimethylpiperidin-1-yl)-2-methylpyridin-3-yl]-2-(tert-butoxy)acetic acid] — 5.3-fold lower, 3 nM
- CCC(C)(C)O[C@H](C(=O)O)c1c(C)ncc(-c2ncc(OCCc3ccc(F)cc3)cn2)c1N1CCC(C)(C)CC1 [Example 247, (S)-2-(4-(4,4-Dimethylpiperidin-1-yl)-5-(5-(4-fluorophenethoxy)pyrimidin-2-yl)-2-methylpyridin-3-yl)-2-(tert-pentyloxy)acetic acid] — 20-fold lower, 0.8 nM
- Cc1nc(NCCCN2CCOCC2)c(-c2ccc(OCCc3ccc(F)cc3)cc2)c(N2CCC(C)(C)CC2)c1[C@H](OC(C)(C)C)C(=O)O [Example 34, (S)-2-(tert-Butoxy)-2-(4-(4,4-dimethylpiperidin-1-yl)-5-(4-(4-fluorophenethoxy)phenyl)-2-methyl-6-((3-morpholinopropyl)amino)pyridin-3-yl)acetic acid] — 23-fold lower, 0.7 nM
- CN(Cc1ccc(-c2cnc(Cl)c([C@H](OC(C)(C)C)C(=O)O)c2N2CCC(C)(C)CC2)cc1)c1ncnc2c1oc1ccccc12 [Example 220, (S)-2-(5-(4-((Benzofuro[3,2-d]pyrimidin-4-yl(methyl)amino)methyl)phenyl)-2-chloro-4-(4,4-dimethylpiperidin-1-yl)pyridin-3-yl)-2-(tert-butoxy)acetic acid] — 8-fold lower, 2 nM
- Cc1ncc(-c2cnc(O[C@H](C)c3ccccc3)c(F)c2)c(N2CCC(C)(C)CC2)c1[C@H](OC(C)(C)C)C(=O)O [Example 396, (2S)-2-(tert-butoxy)-2-[4-(4,4-dimethylpiperidin-1-yl)-5′-fluoro-6-methyl-6′-[(1R)-1-phenylethoxy]-[3,3′-bipyridine]-5-yl]acetic acid] — 8-fold lower, 2 nM
- Cc1cc(CCOc2ccc(-c3cnc(C)c([C@H](OC(C)(C)C)C(=O)O)c3N3CCC(C)(C)CC3)nc2)ccc1F [Example 294, (2S)-2-(tert-butoxy)-2-[4′-(4,4-dimethylpiperidin-1-yl)-5-[2-(4-fluoro-3-methylphenyl)ethoxy]-6′-methyl-[2,3′-bipyridine]-5′-yl]acetic acid] — 8-fold lower, 2 nM
- COc1ccc(-c2cnc(C)c([C@H](OC(C)(C)C)C(=O)O)c2N2CCC(C)(C)CC2)cc1 [Example 136, (2S)-2-(tert-Butoxy)-2-[4-(4,4-dimethylpiperidin-1-yl)-5-(4-methoxyphenyl)-2-methylpyridin-3-yl]acetic acid] — 8-fold lower, 2 nM
- COc1c(F)cc(-c2c(CO)nc(C)c([C@H](OC(C)(C)C)C(=O)O)c2N2CCC(C)(C)CC2)cc1F [Example 139, (S)-2-(tert-Butoxy)-2-(5-(3,5-difluoro-4-methoxyphenyl)-4-(4,4-dimethylpiperidin-1-yl)-6-(hydroxymethyl)-2-methylpyridin-3-yl)acetic acid] — 1.7-fold higher, 27 nM
- Cc1ncc(-c2ccc(OCC(C)C)nc2Cl)c(N2CCC(C)(C)CC2)c1[C@H](OC(C)(C)C)C(=O)O [Example 431, (2S)-2-tert-Butoxy-2-(2′-chloro-4-(4,4-dimethylpiperidin-1-yl)-6′-isobutoxy-6-methyl-3, 3′-bipyridin-5-yl)acetic acid] — 2-fold higher, 32 nM
- Cc1nc(NC2CC2)c(-c2ccc(OCCc3ccc(F)cc3)cc2)c(N2CCC(C)(C)CC2)c1[C@H](OC(C)(C)C)C(=O)O [Example 106, (S)-2-(tert-Butoxy)-2-(6-(cyclopropylamino)-4-(4,4-dimethylpiperidin-1-yl)-5-(4-(4-fluorophenethoxy)phenyl)-2-methylpyridin-3-yl)acetic acid] — 16-fold lower, 1 nM
- Cc1cn(-c2nc(C)c([C@H](OC(C)(C)C)C(=O)O)c(N3CCC(C)(C)CC3)c2-c2ccc(OCCc3ccc(F)cc3)cc2)c(C)n1 [Example 53, (S)-2-(tert-Butoxy)-2-(6-(2,4-dimethyl-1H-imidazol-1-yl)-4-(4,4-dimethylpiperidin-1-yl)-5-(4-(4-fluorophenethoxy)phenyl)-2-methylpyridin-3-yl)acetic acid] — 5.3-fold lower, 3 nM
- Cc1ncc(-c2ccc(OCCC(C)C)cc2)c(N2CCC(C)(C)CC2)c1[C@H](OC(C)(C)C)C(=O)O [Example 361, (2S)-2-(tert-butoxy)-2-[4-(4,4-dimethylpiperidin-1-yl)-2-methyl-5-[4-(3-methylbutoxy)phenyl]pyridin-3-yl]acetic acid] — 4-fold lower, 4 nM
